Experimental data: ChEMBL document CHEMBL1201862, “PubChem BioAssay data set” (2004)
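Grown in 96-well plates, cells were treated for 48 hours with each compound at five concentrations. Insufficient inhibition: endpoint recorded as highest concentration tested. Abbreviation: GI50, concentration required for 50% inhibition of growth.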 The source made the active and inactive calls. Cut-off read from the data, not from the text of the source: active = GI50 up to about 1.1 µM and inactive = higher.

Assays:
Assay in all cases: inhibition of tumour cell growth, NCI panel, 48 h
[1] = tested on: 786-0
[2] = tested on: A498
[3] = tested on: A549
[4] = tested on: ACHN
[5] = tested on: BT-549
[6] = tested on: CAKI-1
[7] = tested on: CCRF-CEM
[8] = tested on: COLO 205
[9] = tested on: DU-145
[10] = tested on: EKVX
[11] = tested on: HCC 2998
[12] = tested on: HCT-116
[13] = tested on: HCT-15
[14] = tested on: HL-60
[15] = tested on: HOP-62
[16] = tested on: HOP-92
[17] = tested on: HT-29
[18] = tested on: Hs-578T
[19] = tested on: IGROV-1
[20] = tested on: K562
[21] = tested on: KM12
[22] = tested on: LOX IMVI
[23] = tested on: M14
[24] = tested on: MCF7
[25] = tested on: MDA-MB-231
[26] = tested on: MDA-MB-435
[27] = tested on: MDA-N
[28] = tested on: MOLT-4
[29] = tested on: Malme-3M
[30] = tested on: NCI-H226
[31] = tested on: NCI-H23
[32] = tested on: NCI-H460
[33] = tested on: NCI-H522
[34] = tested on: NCI/ADR-RES
[35] = tested on: OVCAR-3
[36] = tested on: OVCAR-4
[37] = tested on: OVCAR-5
[38] = tested on: OVCAR-8
[39] = tested on: PC-3
[40] = tested on: RPMI-8226
[41] = tested on: RXF 393
[42] = tested on: SF-268
[43] = tested on: SF-295
[44] = tested on: SF-539
[45] = tested on: SK-MEL-28
[46] = tested on: SK-MEL-2
[47] = tested on: SK-MEL-5
[48] = tested on: SK-OV-3
[49] = tested on: SN12C
[50] = tested on: SNB-19
[51] = tested on: SNB-75
[52] = tested on: SR
[53] = tested on: SW-620
[54] = tested on: TK-10
[55] = tested on: U-251
[56] = tested on: UACC-257
[57] = tested on: UACC-62
[58] = tested on: UO-31
[59] = tested on: T47D

How did the GI50 [1] turn out when `COc1cc(C2c3cc4c(cc3OC(NCc3ccccc3)C2C)OCO4)cc(OC)c1OC` (stereo unspecified) was run?
Its GI50 is 0.357 µM (active).

And the GI50 [2]?
The GI50 was 0.667 µM (active).

And the GI50 [3]?
Its GI50 is 0.631 µM (active).

What about the GI50 [4] of the same molecule?
The GI50 was 1.01 µM (active).

What about the GI50 [5] of the same molecule?
The GI50 was 0.631 µM (active).

What about the GI50 [6] of the same molecule?
The GI50 was 0.288 µM (active).

What about the GI50 [7] of the same molecule?
The GI50 was 0.39 µM (active).

And the GI50 [8]?
Its GI50 is 0.252 µM (active).

And the GI50 [9]?
Its GI50 is 0.406 µM (active).

And the GI50 [10]?
The GI50 was 2.56 µM (inactive).

What about the GI50 [11] of the same molecule?
The GI50 was 0.687 µM (active).

What about the GI50 [12] of the same molecule?
Its GI50 is 0.364 µM (active).

What about the GI50 [13] of the same molecule?
The GI50 was 0.543 µM.

And the GI50 [14]?
The GI50 was 0.277 µM (active).

What about the GI50 [15] of the same molecule?
Its GI50 is 0.553 µM (active).

What about the GI50 [16] of the same molecule?
Its GI50 is 2 µM (inactive).

And the GI50 [17]?
The GI50 was 0.337 µM (active).

And the GI50 [18]?
The GI50 was 0.279 µM (active).

And the GI50 [19]?
Its GI50 is 0.448 µM (active).

What about the GI50 [20] of the same molecule?
Its GI50 is 0.305 µM (active).

What about the GI50 [21] of the same molecule?
The GI50 was 0.377 µM (active).

What about the GI50 [22] of the same molecule?
Its GI50 is 0.551 µM (active).

And the GI50 [23]?
Its GI50 is 0.442 µM (active).

And the GI50 [24]?
Its GI50 is 0.439 µM (active).

And the GI50 [25]?
The GI50 was 0.303 µM (active).

What about the GI50 [26] of the same molecule?
The GI50 was 0.102 µM (active).

And the GI50 [27]?
The GI50 was 0.0973 µM (active).

What about the GI50 [28] of the same molecule?
Its GI50 is 0.653 µM (active).

And the GI50 [29]?
Its GI50 is 0.254 µM (active).

And the GI50 [30]?
The GI50 was 0.853 µM (active).

And the GI50 [31]?
Its GI50 is 0.417 µM (active).

And the GI50 [32]?
Its GI50 is 0.394 µM (active).

What about the GI50 [33] of the same molecule?
The GI50 was 0.339 µM (active).

What about the GI50 [34] of the same molecule?
The GI50 was 0.258 µM (active).

And the GI50 [35]?
Its GI50 is 0.298 µM (active).

And the GI50 [36]?
Its GI50 is 0.644 µM (active).

And the GI50 [37]?
Its GI50 is 1.09 µM (active).

What about the GI50 [38] of the same molecule?
The GI50 was 0.482 µM (active).

And the GI50 [39]?
Its GI50 is 0.24 µM (active).

And the GI50 [40]?
Its GI50 is 0.381 µM (active).

And the GI50 [41]?
The GI50 was 0.206 µM (active).

What about the GI50 [42] of the same molecule?
Its GI50 is 0.933 µM (active).

What about the GI50 [43] of the same molecule?
Its GI50 is 0.219 µM (active).

What about the GI50 [44] of the same molecule?
The GI50 was 0.273 µM (active).

And the GI50 [45]?
The GI50 was 4.04 µM (inactive).

And the GI50 [46]?
Its GI50 is 0.675 µM (active).

What about the GI50 [47] of the same molecule?
Its GI50 is 0.261 µM (active).

And the GI50 [48]?
Its GI50 is 0.476 µM (active).

And the GI50 [49]?
The GI50 was 0.697 µM (active).

What about the GI50 [50] of the same molecule?
The GI50 was 0.452 µM (active).

What about the GI50 [51] of the same molecule?
Its GI50 is 0.177 µM (active).

What about the GI50 [52] of the same molecule?
Its GI50 is 0.241 µM (active).

What about the GI50 [53] of the same molecule?
The GI50 was 0.331 µM (active).

And the GI50 [54]?
Its GI50 is 20.2 µM (inactive).

And the GI50 [55]?
The GI50 was 0.39 µM (active).

What about the GI50 [56] of the same molecule?
The GI50 was 6.92 µM (inactive).

What about the GI50 [57] of the same molecule?
Its GI50 is 0.409 µM (active).

What about the GI50 [58] of the same molecule?
The GI50 was 0.504 µM (active).

For `CCOc1ccc(N/C(=C(/C(Cl)=C(/Cl)N2CCCCC2)[N+](=O)[O-])n2nnc3ccccc32)cc1`, which GI50 [1] is on record?
Its GI50 is 18.7 µM (inactive).

What about the GI50 [2] of the same molecule?
The GI50 was 18.3 µM (inactive).

What about the GI50 [3] of the same molecule?
The GI50 was 21.5 µM (inactive).

And the GI50 [4]?
Its GI50 is 16.2 µM (inactive).

What about the GI50 [5] of the same molecule?
Its GI50 is 17.7 µM (inactive).

And the GI50 [6]?
The GI50 was 9.23 µM (inactive).

And the GI50 [8]?
Its GI50 is 20.6 µM (inactive).

And the GI50 [9]?
The GI50 was 19.2 µM (inactive).

What about the GI50 [10] of the same molecule?
The GI50 was 19.3 µM (inactive).

What about the GI50 [11] of the same molecule?
The GI50 was 21 µM (inactive).

What about the GI50 [12] of the same molecule?
Its GI50 is 16.7 µM (inactive).

What about the GI50 [13] of the same molecule?
The GI50 was 11.1 µM.

What about the GI50 [15] of the same molecule?
Its GI50 is 21.4 µM (inactive).

And the GI50 [16]?
The GI50 was 18.2 µM (inactive).

What about the GI50 [20] of the same molecule?
Its GI50 is 17.4 µM (inactive).

And the GI50 [21]?
Its GI50 is 14.2 µM (inactive).

What about the GI50 [23] of the same molecule?
The GI50 was 14.9 µM (inactive).

What about the GI50 [24] of the same molecule?
The GI50 was 16.9 µM (inactive).

What about the GI50 [25] of the same molecule?
The GI50 was 20.9 µM (inactive).

And the GI50 [26]?
The GI50 was 8.49 µM (inactive).

What about the GI50 [27] of the same molecule?
The GI50 was 16.3 µM (inactive).

What about the GI50 [28] of the same molecule?
The GI50 was 5.27 µM (inactive).

And the GI50 [29]?
The GI50 was 21.7 µM (inactive).

What about the GI50 [30] of the same molecule?
The GI50 was 27.9 µM (inactive).

What about the GI50 [31] of the same molecule?
The GI50 was 15.3 µM (inactive).

And the GI50 [32]?
Its GI50 is 22.2 µM (inactive).

And the GI50 [33]?
The GI50 was 6.31 µM (inactive).

What about the GI50 [34] of the same molecule?
Its GI50 is 19.3 µM (inactive).

What about the GI50 [35] of the same molecule?
The GI50 was 17.4 µM (inactive).

What about the GI50 [37] of the same molecule?
The GI50 was 16.7 µM (inactive).

What about the GI50 [39] of the same molecule?
The GI50 was 11.6 µM (inactive).

And the GI50 [40]?
The GI50 was 14.7 µM (inactive).

What about the GI50 [42] of the same molecule?
Its GI50 is 17.4 µM (inactive).

And the GI50 [43]?
The GI50 was 22.4 µM (inactive).

What about the GI50 [44] of the same molecule?
Its GI50 is 16.4 µM (inactive).

And the GI50 [45]?
Its GI50 is 18.5 µM (inactive).

What about the GI50 [46] of the same molecule?
Its GI50 is 16.7 µM (inactive).

And the GI50 [47]?
Its GI50 is 15.6 µM (inactive).

And the GI50 [48]?
The GI50 was 28.9 µM (inactive).

And the GI50 [49]?
Its GI50 is 19.3 µM (inactive).

What about the GI50 [50] of the same molecule?
Its GI50 is 19.9 µM (inactive).

What about the GI50 [51] of the same molecule?
Its GI50 is 19.9 µM (inactive).

And the GI50 [59]?
The GI50 was 17.3 µM (inactive).

What about the GI50 [54] of the same molecule?
The GI50 was 32.8 µM (inactive).

What about the GI50 [55] of the same molecule?
Its GI50 is 15.6 µM (inactive).

And the GI50 [56]?
The GI50 was 16.9 µM (inactive).

And the GI50 [57]?
Its GI50 is 14.4 µM (inactive).

And the GI50 [58]?
Its GI50 is 2 µM (inactive).
